Earlier results as cited in patent US9724304B2, “Nanospheres for therapeutic agent delivery” (Temple University—Of The Commonwealth System of Higher …, priority 2012, dated 2017).
In brackets after ≈: the same amount, converted by molar mass.

Settings: at 25° C.

- aqueous solubility: 29 µg/mL (≈ 96.5 µM)
SMILES: CC1=C(/C=C/C(C)=C/C=C/C(C)=C/C(=O)O)C(C)(C)CCC1 [ATRA, All-trans retinoic acid]
